In ChEMBL document CHEMBL3217526, “Bioguided discovery and pharmacophore modeling of the mycotoxic indole diterpene alkaloids penitrems as breast cancer proliferation, migration, and invasion inhibitors” (Medchemcomm, 2013):

Tests used:
Type in all cases: functional
HT-29 = test: Cytotoxicity against human HT-29 cells assessed as growth inhibition at 10 uM; conditions: read-out: GI
NCI-H23 = test: Cytotoxicity against human NCI-H23 cells assessed as growth inhibition at 10 uM; conditions: read-out: GI
MDA-MB-435 = test: Cytotoxicity against human MDA-MB-435 cells assessed as growth inhibition at 10 uM; conditions: read-out: GI
ACHN = test: Cytotoxicity against human ACHN cells assessed as growth inhibition at 10 uM; conditions: read-out: GI
PC-3 = test: Cytotoxicity against human PC3 cells assessed as growth inhibition at 10 uM; conditions: read-out: GI
U-251 = test: Cytotoxicity against human U251 cells assessed as growth inhibition at 10 uM; conditions: read-out: GI
SF-295 = test: Cytotoxicity against human SF295 cells assessed as growth inhibition at 10 uM; conditions: read-out: GI
SK-MEL-28 = test: Cytotoxicity against human SK-MEL-28 cells assessed as growth inhibition at 10 uM; conditions: read-out: GI
MDA-MB-231 [1] = test: Cytotoxicity against human MDA-MB-231 cells assessed as growth inhibition at 10 uM; conditions: read-out: GI
[2] = Cytotoxicity against human UACC257 cells assessed as growth inhibition at 10 uM; conditions: UACC-257, read-out: GI
IGROV-1 = test: Cytotoxicity against human IGROV1 cells assessed as growth inhibition at 10 uM; conditions: read-out: GI
[3] = Cytotoxicity against human OVCAR5 cells assessed as growth inhibition at 10 uM; conditions: OVCAR-5, read-out: GI
MCF7 = test: Cytotoxicity against human MCF7 cells assessed as growth inhibition at 10 uM; conditions: read-out: GI
[4] = Cytotoxicity against human Hs578T cells assessed as growth inhibition at 10 uM; conditions: Hs-578T, read-out: GI
KM12 = test: Cytotoxicity against human KM12 cells assessed as growth inhibition at 10 uM; conditions: read-out: GI
Malme-3M = test: Cytotoxicity against human MALME-3M cells assessed as growth inhibition at 10 uM; conditions: read-out: GI
BT-549 = test: Cytotoxicity against human BT549 cells assessed as growth inhibition at 10 uM; conditions: read-out: GI
CCRF-CEM = test: Cytotoxicity against human CCRF-CEM cells assessed as growth inhibition at 10 uM; conditions: read-out: GI
HCT-116 = test: Cytotoxicity against human HCT116 cells assessed as growth inhibition at 10 uM; conditions: read-out: GI
SN12C = test: Cytotoxicity against human SN12C cells assessed as growth inhibition at 10 uM; conditions: read-out: GI
M14 = test: Cytotoxicity against human M14 cells assessed as growth inhibition at 10 uM; conditions: read-out: GI
HCC 2998 = test: Cytotoxicity against human HCC2998 cells assessed as growth inhibition at 10 uM; conditions: read-out: GI
K562 = test: Cytotoxicity against human K562 cells assessed as growth inhibition at 10 uM; conditions: read-out: GI
TK-10 = test: Cytotoxicity against human TK10 cells assessed as growth inhibition at 10 uM; conditions: read-out: GI
HOP-62 = test: Cytotoxicity against human HOP62 cells assessed as growth inhibition at 10 uM; conditions: read-out: GI
SK-MEL-2 = test: Cytotoxicity against human SK-MEL-2 cells assessed as growth inhibition at 10 uM; conditions: read-out: GI
NCI-H522 = test: Cytotoxicity against human NCI-H522 cells assessed as growth inhibition at 10 uM; conditions: read-out: GI
DU-145 = test: Cytotoxicity against human DU145 cells assessed as growth inhibition at 10 uM; conditions: read-out: GI
NCI-H460 = test: Cytotoxicity against human NCI-H460 cells assessed as growth inhibition at 10 uM; conditions: read-out: GI
SNB-19 = test: Cytotoxicity against human SNB19 cells assessed as growth inhibition at 10 uM; conditions: read-out: GI
786-0 = test: Cytotoxicity against human 786-0 cells assessed as growth inhibition at 10 uM; conditions: read-out: GI
MOLT-4 = test: Cytotoxicity against human MOLT4 cells assessed as growth inhibition at 10 uM; conditions: read-out: GI
SF-539 = test: Cytotoxicity against human SF539 cells assessed as growth inhibition at 10 uM; conditions: read-out: GI
SK-OV-3 = test: Cytotoxicity against human SKOV3 cells assessed as growth inhibition at 10 uM; conditions: read-out: GI
A549 = test: Cytotoxicity against human A549 cells assessed as growth inhibition at 10 uM; conditions: read-out: GI
T47D = test: Cytotoxicity against human T47D cells assessed as growth inhibition at 10 uM; conditions: read-out: GI
[5] = Cytotoxicity against human UACC62 cells assessed as growth inhibition at 10 uM; conditions: UACC-62, read-out: GI
[6] = Cytotoxicity against human OVCAR3 cells assessed as growth inhibition at 10 uM; conditions: OVCAR-3, read-out: GI
SNB-75 = test: Cytotoxicity against human SNB75 cells assessed as growth inhibition at 10 uM; conditions: read-out: GI
[7] = Cytotoxicity against human UO31 cells assessed as growth inhibition at 10 uM; conditions: UO-31, read-out: GI
[8] = Cytotoxicity against human OVCAR8 cells assessed as growth inhibition at 10 uM; conditions: OVCAR-8, read-out: GI
COLO 205 = test: Cytotoxicity against human COLO205 cells assessed as growth inhibition at 10 uM; conditions: read-out: GI
NCI-H322M = test: Cytotoxicity against human NCI-H322M cells assessed as growth inhibition at 10 uM; conditions: read-out: GI
[9] = Cytotoxicity against human EKVX cells assessed as growth inhibition at 10 uM; conditions: read-out: GI
NCI-H226 = test: Cytotoxicity against human NCI-H226 cells assessed as growth inhibition at 10 uM; conditions: read-out: GI
LOX IMVI = test: Cytotoxicity against human LOXIMVI cells assessed as growth inhibition at 10 uM; conditions: read-out: GI
MDA-MB-468 = test: Cytotoxicity against human MDA-MB-468 cells assessed as growth inhibition at 10 uM; conditions: read-out: GI
CAKI-1 = test: Cytotoxicity against human CAKI-1 cells assessed as growth inhibition at 10 uM; conditions: read-out: GI
SW-620 = test: Cytotoxicity against human SW620 cells assessed as growth inhibition at 10 uM; conditions: read-out: GI
SF-268 = test: Cytotoxicity against human SF268 cells assessed as growth inhibition at 10 uM; conditions: read-out: GI
HL-60(TB) = test: Cytotoxicity against human HL-60(TB) cells assessed as growth inhibition at 10 uM; conditions: read-out: GI
[10] = Cytotoxicity against human HCT15 cells assessed as growth inhibition at 10 uM; conditions: HCT-15, read-out: GI
RXF 393 = test: Cytotoxicity against human RXF393 cells assessed as growth inhibition at 10 uM; conditions: read-out: GI
MDA-MB-231 [11] = test: Antiinvasive activity against human MDA-MB-231 cells assessed as inhibition of cell invasion at 15 uM after 24 hrs by BME Cell invasion assay kit; conditions: MDA-MB-231, 24 h
SR = test: Cytotoxicity against human SR cells assessed as growth inhibition at 10 uM; conditions: read-out: GI
SK-MEL-5 = test: Cytotoxicity against human SK-MEL-5 cells assessed as growth inhibition at 10 uM; conditions: read-out: GI

Work on `C=C(C)[C@H]1O[C@H]2CC[C@@]3(C)[C@@](O)(CC[C@H]4[C@@H]5OC(C)(C)[C@H]6C[C@@H]7C(=C)Cc8c(Cl)cc9[nH]c(c5c9c8[C@@]76O)[C@@]43C)[C@@]23O[C@H]3[C@H]1O` [PENITREM A] yielded an inhibition of growth at 10 µM (HT-29) of 86.9%, an inhibition of growth at 10 µM (NCI-H23) of 88.6% and an inhibition of growth at 10 µM (MDA-MB-435) of 52.9%. The inhibition of growth at 10 µM (ACHN) was 75.2%, the inhibition of growth at 10 µM (PC-3) was 39.3% and the inhibition of growth at 10 µM (U-251) was 85.1%. The inhibition of growth at 10 µM (SF-295) was 57.1%, the inhibition of growth at 10 µM (SK-MEL-28) was 83.4% and the inhibition of growth at 10 µM (MDA-MB-231 [1]) was 97.5%. It also gave an inhibition of growth at 10 µM [2] of 76.2%, an inhibition of growth at 10 µM (IGROV-1) of 74.9% and an inhibition of growth at 10 µM [3] of 105%. The inhibition of growth at 10 µM (MCF7) was 55.8%, the inhibition of growth at 10 µM [4] was 94% and the inhibition of growth at 10 µM (KM12) was 71.5%. The inhibition of growth at 10 µM (Malme-3M) was 43.2%, the inhibition of growth at 10 µM (BT-549) was 98.2% and the inhibition of growth at 10 µM (CCRF-CEM) was 57.2%. It also gave an inhibition of growth at 10 µM (HCT-116) of 67.4%, an inhibition of growth at 10 µM (SN12C) of 73.3% and an inhibition of growth at 10 µM (M14) of 62.6%. It also gave an inhibition of growth at 10 µM (HCC 2998) of 77%, an inhibition of growth at 10 µM (K562) of 66.1% and an inhibition of growth at 10 µM (TK-10) of 98.6%. For the same compound, the inhibition of growth at 10 µM (HOP-62) was 107%, the inhibition of growth at 10 µM (SK-MEL-2) was 95.1% and the inhibition of growth at 10 µM (NCI-H522) was 77.1%. It also gave an inhibition of growth at 10 µM (DU-145) of 85.5%, an inhibition of growth at 10 µM (NCI-H460) of 85.5% and an inhibition of growth at 10 µM (SNB-19) of 67.7%. It also gave an inhibition of growth at 10 µM (786-0) of 93.1%, an inhibition of growth at 10 µM (MOLT-4) of 53.2% and an inhibition of growth at 10 µM (SF-539) of 89%. The inhibition of growth at 10 µM (SK-OV-3) was 109%, the inhibition of growth at 10 µM (A549) was 73.7% and the inhibition of growth at 10 µM (T47D) was 73.9%. It also gave an inhibition of growth at 10 µM [5] of 74.9%, an inhibition of growth at 10 µM [6] of 92.6% and an inhibition of growth at 10 µM (SNB-75) of 53.7%. It also gave an inhibition of growth at 10 µM [7] of 41%, an inhibition of growth at 10 µM [8] of 83.2% and an inhibition of growth at 10 µM (COLO 205) of 91.3%. The inhibition of growth at 10 µM (NCI-H322M) was 65.2%, the inhibition of growth at 10 µM [9] was 76.3% and the inhibition of growth at 10 µM (NCI-H226) was 76.8%. For the same compound, the inhibition of growth at 10 µM (LOX IMVI) was 79.4%, the inhibition of growth at 10 µM (MDA-MB-468) was 69.6% and the inhibition of growth at 10 µM (CAKI-1) was 35.5%. The inhibition of growth at 10 µM (SW-620) was 93.3%, the inhibition of growth at 10 µM (SF-268) was 71% and the inhibition of growth at 10 µM (HL-60(TB)) was 74.7%. It also gave an inhibition of growth at 10 µM [10] of 78.7%, an inhibition of growth at 10 µM (RXF 393) of 76.5% and an inhibition at 15 µM (MDA-MB-231 [11]) greater than 75%. For the same compound, the inhibition of growth at 10 µM (SR) was 46% and the inhibition of growth at 10 µM (SK-MEL-5) was 68.3%.
